Tests used:
[1] = test system: male Sprague-Dawley rats; type: in vivo, rat; conditions: minimal dose at which sexual dysfunction occurs, male rats
Description: In summary, male rats were allowed access to sexually receptive females during a single overnight mating session and then administered antidepressants with varying degrees of clinically reported sexual deficits. […] Animals
Intact male Sprague-Dawley rats (Charles River Laboratories) arrived at 7 weeks of age and were allowed to habituate for one week prior to sexual experience or behavioral testing. Rats were group housed in same-sex colony rooms with food and water provided ad libitum. All animals were maintained under a 12:12 light-dark cycle (lights on at 6:00 am) with behavioral experiments performed during the light hours beginning at noon.
Ovariectomized female Long-Evans rats (Charles River Laboratories) were individually housed and brought into behavioral estrus weekly by subcutaneous injection of 25 ug 17-B estradiol benzoate in 0.1 ml corn oil 48 hours prior to testing, followed by subcutaneous administration of 2.5 mg progesterone in 0.1 ml corn oil 4 to 6 hours before testing.
For subjects assigned into the sexually experienced group, the following procedures were performed. Individual male rats were placed into the home cage of a a sexually receptive female for overnight mating sessions. The cage was a Plexiglas cage measuring 10×12 inches, with food and water ad libitum. Mating pairs were randomly assigned. […] Following overnight mating sessions, males and females were separated from each other and placed back into same-sex colony rooms where they were group-housed until the time of behavioral testing.
To determine the effects of female stimuli on non-contact penile erections, sexually receptive females were brought into the testing room 30 minutes prior to the start of behavioral testing in order to provide female visual, olfactory, and auditory stimuli for males. The testing arena for observing non-contact penile erections in male rats consisted of an empty rat size Plexiglas cage (11×10 inches) containing no bedding, with an aerated plastic lid and a total ceiling height of 12 inches. […] A penile erection consisted of observation of the male rat in a hunched position grasping the penis with the forepaws and followed by a series of pelvic thrusts. The number of penile erections were quantified over a 30 minute observation session.
Following sexual experience (as described above), male subjects (n=8 per group) were administered either 10 mg/kg/day fluoxetine or saline vehicle for 14 days. On the 14th day, fluoxetine treatment was co-administered with either saline or apomorphine (0.1-0.3 mg/kg, sc) or yohimbine (0.1-0.3 mg/kg, sc) or sildenafil (0.1-0.3 mg/kg, sc) in separate experiments. Non-contact penile erections were evaluated in 30 minute test sessions in the presence of sexually receptive female rats.
Fluoxetine HCl (Tocris), desipramine (Sigma, St. Louis, Mo.) and bupropion HCl (Toronto Research Chemicals, Canada) were dissolved in 0.9% sterile saline vehicle and injected intraperitoneally (i.p.) once daily. On the day of behavioral testing, antidepressants were administered intraperitoneally (i.p.) as one hour pretreatments. For reversal experiments, apomorphine (Sigma, St. Louis, Mo.), yohimbine (Sigma, St. Louis, Mo.) or sildenafil (Toronto Research Chemicals, Canada) were used. Apomorphine was dissolved in 0.9% sterile saline vehicle and injected subcutaneously (s.c.). Yohimbine was dissolved in dH2O facilitated with 1N HCl, followed by addition of 1N NaOH for titration (pH=7) and administered intraperitoneally (i.p.). Sildenafil was dissolved in 0.9% sterile saline vehicle and administered intraperitoneally (i.p.). With the exception of fluoxetine which was administered in a dose volume of 2 ml/kg, all other test compounds were administered in a dose volume of 1 ml/kg. On the day of behavioral testing, both fluoxetine and the reversal agent (apomorphine, yohimbine, or sildenafil) were co-administered as 0 minute pretreatments. […]

[2] = test system: male Sprague-Dawley rats; assay: Schedule-induced polydipsia (SIP) in rats; type: in vivo, rat
Description: SIP is a model of obsessive-compulsive disorder. In this model, a food pellet is delivered once per minute for a two-hour period. A water bottle is available in the chamber. […] This excessive manifestation of a normal behavior (drinking) provides face validity to the model. […] Most importantly, clinically effective drugs for the treatment of obsessive-compulsive disorder decrease adjunctive drinking.
Animals: Male Sprague-Dawley rats weighing 275-325 g were individually housed in wire hanging cages. Each cage was equipped with a water spigot attached to an automated watering system which allow free access to water at all times.
Methods Rats were placed in an operant chamber (Med Associates) equipped with a pellet dispenser, a food receptacle, a houselight and a water bottle with 100 ml of water. Houselights were turned on in the chamber and a food pellet (Bioserve, 45 mg) was delivered on a fixed-time 60 sec schedule, such that one pellet was delivered each minute during a 2 hour experimental session. At the end of the session, water intake was measured.
Experiments to control for schedule and baseline water intake were conducted by placing 120 pellets in the food receptacle at the start of a 2-hour experimental session. Houselights were turned on, but no additional food pellets were delivered. At the end of the session, water intake was measured.
Dose calculations were based on active moiety.
Evaluation of Results Data were analyzed using a one-way ANOVA. Post hoc tests comparing vehicle to doses of Compound 1 were conducted using contrasts in a least squares model. An ED50 value (dose decreasing polydipsic intake to 50% of vehicle values) was calculated using nonlinear regression models.

[3] = test system: male Sprague Dawley CD rats; assay: Reversal of d-amphetamine induced deficits in pre-pulse inhibition (PPI); conditions: 3-17 mg/kg IP, d-amphetamine 4 mg/kg SC

c1cc2c3c(c1)[C@H]1CCC[C@H]1N3CCNC2 [Compound 1]
Sexual dysfunction (MED mg/kg) [1]: ≧10 mg/kg
change in excessive water intake ([2]; 3 mg/kg ip, p=0.0003): −43%
change in excessive water intake ([2]; 10 mg/kg ip, p<0.0001): −87%
ED50 ([2]; Rattus norvegicus, ip, read-out: ED50 (dose decreasing polydipsic intake to 50% of vehicle values)): 3.16 mg/kg
rats that did not eat all of their food pellets during the 2-hour session ([2]; highest dose (10 mg/kg ip)): 3 of 10
MED for decrease in adjunctive drinking ([2]; ip, acute, 2 hour session): 3 mg/kg
attenuation of amphetamine induced deficit in PPI ([3]; all doses tested): significantly attenuated
effect on startle alone responding [3]: without having a significant effect

Source: patent US20070225278A1, “Methods for treating cognitive and other disorders” (priority 2006, published 2007)
